“And” between values parts separate entries of the source, which are not always exact repeats. Equal values may be shown once.
Legend:
[1] = system: cytoplasmic Ca^2+ in FRT cells; assay: Cytoplasmic calcium measured by Fluo-4 fluorescence; assay type: cell-based; conditions: 10 μM activator
Experimental: FIG. 2A-E. Characterization of TMEM16A activators. FIG. 2A. Cytoplasmic calcium measured by Fluo-4 fluorescence. 100 μM ATP (gray line) or 10 μM of indicated TMEM16A activators were added at the arrow. FIG. 2B. Apical membrane current measured in TMEM16A-expressing FRT cells in the presence of a transepithelial chloride gradient and after basolateral membrane permeabilization. […] T16Ainh-A01 (10 μM) added where indicated. […] (right) Concentration-activation data summary (mean±S.E., n=4-6). FIG. 2C. Synergistic effect of Eact and Fact. (left and center) Representative current traces showing synergy. (right) Data summary of low doses of TMEM16A activation (mean±S.E., n=5, * P<0.05). FIG. 2D. Apical membrane current measured in FRT cells transfected with mouse TMEM16A or TMEM16B. FIG. 2E. Effect of Eact and Fact on CFTR and ENaC. (left) FRT cells expressing wild type CFTR and YFP indicator were pretreated for 5 min with 10 μM Eact and Fact. Forskolin (10 μM) added as indicated. (right) HBE cells were pre-treated for 5 min with 10 μM Eact and Fact, with amiloride (10 μM) added as indicated.
FRT cells in 96-well black-walled microplates were loaded with Fluo-4 NW per the manufacturer's protocol (Invitrogen, Carlsbad, Calif.). Fluo-4 fluorescence was measured with a FLUOstar Optima fluorescence plate reader equipped with syringe pumps and custom Fluo-4 excitation/emission filters (485/538 nm).

TMEM16A = molecular target: T1, TMEM16A (Homo sapiens, UniProt Q5XXA6, DEL476-501); assay: Apical membrane current in TMEM16A-expressing FRT cells; assay type: cell-based
T1 construct: expressed in transfected cells
T1 sequence (Q5XXA6 with tags, fused parts or gaps isoform Q5XXA6-5 DEL539-564): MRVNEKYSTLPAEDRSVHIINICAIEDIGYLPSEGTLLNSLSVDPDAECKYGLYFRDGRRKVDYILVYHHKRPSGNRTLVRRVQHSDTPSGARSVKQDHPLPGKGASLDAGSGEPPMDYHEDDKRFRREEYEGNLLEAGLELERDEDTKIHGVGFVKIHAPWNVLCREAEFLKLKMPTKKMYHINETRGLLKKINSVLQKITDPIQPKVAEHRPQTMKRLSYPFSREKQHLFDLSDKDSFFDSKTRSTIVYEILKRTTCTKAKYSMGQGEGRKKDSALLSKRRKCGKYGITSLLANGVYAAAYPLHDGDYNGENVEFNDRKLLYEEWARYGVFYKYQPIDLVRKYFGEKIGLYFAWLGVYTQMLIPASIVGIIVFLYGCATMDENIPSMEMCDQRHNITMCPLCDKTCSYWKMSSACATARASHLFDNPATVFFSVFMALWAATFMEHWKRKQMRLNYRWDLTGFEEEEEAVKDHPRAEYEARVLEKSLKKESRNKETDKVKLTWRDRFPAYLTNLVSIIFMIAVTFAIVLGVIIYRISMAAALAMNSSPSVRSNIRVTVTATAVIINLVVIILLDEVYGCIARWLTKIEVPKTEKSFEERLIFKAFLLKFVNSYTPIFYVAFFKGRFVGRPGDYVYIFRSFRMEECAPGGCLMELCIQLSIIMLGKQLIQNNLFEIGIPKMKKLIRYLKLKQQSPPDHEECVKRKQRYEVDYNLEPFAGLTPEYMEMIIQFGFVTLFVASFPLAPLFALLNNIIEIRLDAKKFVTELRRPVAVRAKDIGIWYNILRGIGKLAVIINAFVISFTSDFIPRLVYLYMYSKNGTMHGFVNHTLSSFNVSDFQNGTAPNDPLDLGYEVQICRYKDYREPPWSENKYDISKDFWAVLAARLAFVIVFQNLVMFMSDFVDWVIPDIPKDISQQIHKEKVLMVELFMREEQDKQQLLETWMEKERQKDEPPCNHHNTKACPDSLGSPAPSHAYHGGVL
Experimental: FRT cells were stably transfected with human TMEM16A (TMEM16A(abc), cDNA provided by Dr. Luis Galietta, Gaslini Institute, Genoa, Italy) and the halide sensor YFP-H148Q/1152L/F46L. Cells were plated in 96-well black-walled microplates (Corning Inc., Corning, N.Y.) at a density of 20,000 cells per well in Coon's modified F12 medium supplemented with 5% fetal calf serum, 2 mM L-glutamine, 100 U/mL penicillin and 100 μg/mL streptomycin. The human submandibular cell line A253 (ATCC HTB 41) was cultured in complete McCoy's 5A medium supplemented with 10% fetal bovine serum, 100 U/mL penicillin and 100 μg/mL streptomycin.
Snapwell inserts containing TMEM16A-expressing FRT, HBE, CF HBE or HTG cells were mounted in Ussing chambers (Physiologic Instruments, San Diego, Calif.). Amiloride, CFTRinh-172, UTP, ATP, T16Ainh-A01 and TMEM16A activators were added to the apical solution and an equal volume of vehicle was added at the same time to the basolateral solution. Symmetrical HCO3^−-buffered solutions were used for HBE, CF HBE and HTG cells. For FRT cells, the hemichambers were filled with a half-Cl^− solution (apical) and the HCO3^−-buffered solution (basolateral), and the basolateral membrane was permeabilized with 250 μg/mL amphotericin B, as described (Namkung et al. (2010), supra). Cells were bathed for a 10 min stabilization period and aerated with 95% O2/5% CO2 at 37° C. or room temperature. Apical membrane current (for FRT cells) and short-circuit current were measured using an EVC4000 Multi-Channel V/I Clamp (World Precision Instruments, Sarasota, Fla.) and recorded using PowerLab/8sp (AD Instruments, Castle Hill, Australia).
The current increase was sustained for >10 min (FIG. 2B, inset). […] Data are also shown for a second Fact compound (Fact9, see Table 1) in FIG. 9.

Row | inhibition of Eact- and Fact-induced Cl^− current (TMEM16A; T16Ainh-A01 10 μM) | Compound | effect on cytoplasmic Ca^2+ [1] | TMEM16A current following 1 μM Eact (synergy) (TMEM16A; 1-3 μM Fact after 1 μM Eact) | TMEM16A activation alone (TMEM16A; 1-3 μM Fact alone) | EC50 (TMEM16A; EC50 from concentration-activation data, apical membrane current) | maximal TMEM16A activation compared to ATP effect (TMEM16A; apical membrane current) | Cl^− current (apical membrane current) (TMEM16A; basolateral membrane permeabilized, Cl^− gradient, ATP 100 μM)
1 |  | O=C(Nc1ccc(Br)cc1)c1cccc(-n2cnnn2)c1 [Fact, N-(4-bromophenyl)-3-(1H-tetrazol-1-yl)benzamide] | did not elevate Ca^2+ | greatly increased TMEM16A current | little TMEM16A activation | 3 to 6 µM and ~6 µM | maximal TMEM16A activation | large, concentration-dependent increases in Cl^− current
2 | inhibited | CCc1c(C)nc(SCC(=O)Nc2nc(-c3ccc(OC)cc3)cs2)[nH]c1=O [T16Ainh-A01, reference compound] |  |  |  |  |  | 
